ChEMBL document CHEMBL1287670, “Discovery and synthesis of 6,7,8,9-tetrahydro-5H-pyrimido-[4,5-d]azepines as novel TRPV1 antagonists” (Bioorg Med Chem Lett, 2010)
In brackets after ≈: the same amount, converted by molar mass. Activity calls are given as the source filed them. No cut-off for these calls is given here.

Assays:
[1] = target: T1, Transient receptor potential cation channel subfamily V member 1 (Homo sapiens, UniProt Q8NER1); assay: Antagonist activity at human recombinant TRPV1 assessed as inhibition of capsaicin-induced in intracellular calcium levels by cell-based FLIPR assay; assay type: functional
T1 sequence (Q8NER1 whole entry): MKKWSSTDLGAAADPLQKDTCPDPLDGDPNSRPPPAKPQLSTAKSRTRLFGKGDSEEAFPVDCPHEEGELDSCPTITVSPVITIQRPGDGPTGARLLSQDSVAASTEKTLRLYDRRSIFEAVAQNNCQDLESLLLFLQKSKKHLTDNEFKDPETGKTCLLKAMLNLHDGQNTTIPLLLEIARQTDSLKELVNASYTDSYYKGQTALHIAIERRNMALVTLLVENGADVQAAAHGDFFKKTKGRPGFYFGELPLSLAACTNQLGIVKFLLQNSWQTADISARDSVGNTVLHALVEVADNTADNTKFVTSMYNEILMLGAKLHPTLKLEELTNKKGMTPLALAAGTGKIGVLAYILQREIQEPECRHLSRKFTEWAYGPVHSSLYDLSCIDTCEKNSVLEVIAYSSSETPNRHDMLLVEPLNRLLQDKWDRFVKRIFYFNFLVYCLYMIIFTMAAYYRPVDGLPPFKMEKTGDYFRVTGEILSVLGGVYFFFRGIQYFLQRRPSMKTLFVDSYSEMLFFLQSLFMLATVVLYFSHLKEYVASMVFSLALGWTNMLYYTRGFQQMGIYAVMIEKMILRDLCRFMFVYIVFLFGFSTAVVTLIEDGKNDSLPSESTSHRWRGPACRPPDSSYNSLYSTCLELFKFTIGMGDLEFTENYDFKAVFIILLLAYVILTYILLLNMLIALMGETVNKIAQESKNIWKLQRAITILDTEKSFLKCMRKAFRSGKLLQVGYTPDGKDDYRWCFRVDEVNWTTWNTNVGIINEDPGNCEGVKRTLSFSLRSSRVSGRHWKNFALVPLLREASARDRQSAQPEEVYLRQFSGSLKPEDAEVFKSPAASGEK

[2] = target: T1, Transient receptor potential cation channel subfamily V member 1; assay: Binding affinity to human recombinant TRPV1
[3] = target: Transient receptor potential cation channel subfamily V member 1 (Rattus norvegicus, UniProt O35433); assay: Binding affinity to rat TRPV1
Chain of Transient receptor potential cation channel subfamily V member 1 (Rattus norvegicus, UniProt O35433) (O35433 whole entry): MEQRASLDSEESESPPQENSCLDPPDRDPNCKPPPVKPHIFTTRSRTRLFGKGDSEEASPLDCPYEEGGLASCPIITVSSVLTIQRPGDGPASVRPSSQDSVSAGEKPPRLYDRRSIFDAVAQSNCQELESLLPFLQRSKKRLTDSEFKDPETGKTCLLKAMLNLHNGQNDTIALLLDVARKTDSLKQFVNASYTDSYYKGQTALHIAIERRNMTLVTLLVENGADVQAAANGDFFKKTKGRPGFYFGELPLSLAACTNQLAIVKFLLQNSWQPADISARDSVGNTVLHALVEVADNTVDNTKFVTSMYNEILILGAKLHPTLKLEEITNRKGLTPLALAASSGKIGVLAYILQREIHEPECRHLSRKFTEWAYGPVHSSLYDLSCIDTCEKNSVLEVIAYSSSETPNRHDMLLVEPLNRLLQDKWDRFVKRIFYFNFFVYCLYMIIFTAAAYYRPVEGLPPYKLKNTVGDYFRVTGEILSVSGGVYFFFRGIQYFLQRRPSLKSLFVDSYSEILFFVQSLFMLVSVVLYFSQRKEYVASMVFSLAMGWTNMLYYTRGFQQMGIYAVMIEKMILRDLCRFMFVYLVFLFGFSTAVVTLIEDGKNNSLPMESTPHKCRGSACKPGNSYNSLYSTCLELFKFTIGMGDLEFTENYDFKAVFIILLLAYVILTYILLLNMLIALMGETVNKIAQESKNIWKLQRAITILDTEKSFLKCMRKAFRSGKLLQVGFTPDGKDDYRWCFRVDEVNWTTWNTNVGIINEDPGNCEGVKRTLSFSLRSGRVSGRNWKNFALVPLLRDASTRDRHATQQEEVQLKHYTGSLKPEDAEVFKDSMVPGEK

[4] = Half life in fasted Sprague-Dawley rat at 1 mg/kg, iv or 5 mg/kg, po; assay type: ADME, organism-based; conditions: in vivo
[5] = Clearance in fasted Sprague-Dawley rat at 1 mg/kg, iv or 5 mg/kg, po; assay type: ADME, organism-based; conditions: in vivo
[6] = Volume of distribution at steady state in fasted Sprague-Dawley rat at 1 mg/kg, iv or 5 mg/kg, po; assay type: ADME, organism-based; conditions: in vivo, read-out: Vdss
[7] = AUC (infinity) in fasted Sprague-Dawley rat at 1 mg/kg, iv; assay type: ADME, organism-based; design: time infinity, dose 1 mg/kg, route intravenous; conditions: plasma
[8] = AUC (infinity) in fasted Sprague-Dawley rat at 5 mg/kg, po; assay type: ADME, organism-based; design: time infinity, dose 5 mg/kg, route oral; conditions: plasma
[9] = Bioavailability in fasted Sprague-Dawley rat at 1 mg/kg, iv or 5 mg/kg, po; assay type: ADME, organism-based; conditions: in vivo
[10] = Cmax in fasted Sprague-Dawley rat at 1 mg/kg, iv or 5 mg/kg, po; assay type: ADME, organism-based; conditions: in vivo
[11] = Aqueous equilibrium solubility of the compound in fasted-state simulated intestinal fluid at pH 6.8 by HPLC; assay type: physicochemical
[12] = Aqueous equilibrium solubility of the compound at pH 2 by HPLC; assay type: physicochemical; conditions: aqueous medium
Rattus norvegicus = assay: Antihyperalgesic activity against carrageenan-induced thermal hyperalgesia in rat assessed as paw withdrawal latency at 30 mg/kg, po administered 1 hr before carrageenan challenge; assay type: functional, organism-based; design: dose 30 mg/kg

SMILES: COC(=O)c1cnc(N2CCc3nc(N4CCOCC4)nc(Nc4ccc(C(F)(F)F)cc4)c3CC2)c(Cl)c1
- IC50 [1]: 176 nM

SMILES: C=C(C)C12C[C@@H](C)[C@@]34O[C@](Cc5ccccc5)(O[C@@H]1[C@@H]3C=C(COC(=O)Cc1ccc(O)c(OC)c1)C[C@]1(O)C(=O)C(C)=C[C@@H]41)O2 (single isomer, unassigned) [RESINIFERATOXIN]
- Ki [2]: 14 nM
- IC50 [3]: 180 nM

SMILES: CC(C)(C)c1ccc(Nc2ncnc3c2CCCN(c2ncccc2C(F)(F)F)C3)cc1
- IC50 [1]: 2040 nM

SMILES: FC(F)(F)c1ccc(Nc2nc(N3CCOCC3)nc3c2CCN(c2ncccc2C(F)(F)F)CC3)cc1
- half-life [4]: 1.1 h
- clearance [5]: 51.7 mL/min/kg
- Vd [6]: 4.7 L/kg
- AUC(0-inf) [7]: 322 ng·h/mL
- AUC(0-inf) [8]: 236 ng·h/mL
- bioavailability [9]: 14%
- Cmax [10]: 160 nM
- solubility thermodynamic [11]: 0.5 µg/mL (≈ 0.929 µM)
- solubility thermodynamic [12]: 5 µg/mL (≈ 9.29 µM)
- Activity (Rattus norvegicus): Active

SMILES: CC(C)(C)c1cccc(Nc2ncnc3c2CCN(c2ncccc2C(F)(F)F)C3)c1
- IC50 [1]: 520 nM

SMILES: CC(C)(C)c1ccc(Nc2ncnc3c2CN(c2ncccc2C(F)(F)F)CC3)cc1
- IC50 [1]: > 10000 nM

SMILES: COc1nc(Nc2nc(C(C)C)nc3c2CCN(c2ncccc2C(F)(F)F)CC3)ccc1C(F)(F)F
- IC50 [1]: 2460 nM

SMILES: CC(C)(C)c1ccccc1Nc1ncnc2c1CCN(c1ncccc1C(F)(F)F)C2
- IC50 [1]: > 20000 nM

SMILES: CC(C)c1nc2c(c(Nc3ccc(C(C)(C)C)cc3)n1)CCN(c1ncccc1C(F)(F)F)C2
- IC50 [1]: 18 nM

SMILES: Cc1nc2c(c(Nc3ccc(C(C)(C)C)cc3)n1)CCN(c1ncccc1C(F)(F)F)C2
- IC50 [1]: 80 nM

SMILES: CC(C)(C)c1ccc(Nc2ncnc3c2CCN(c2ncccc2C(F)(F)F)C3)cc1
- IC50 [1]: 9 nM

SMILES: FC(F)(F)c1cccc(Nc2ncnc3c2CCN(c2ncccc2C(F)(F)F)C3)c1
- IC50 [1]: 1450 nM

SMILES: O=C(O)c1cnc(N2CCc3nc(N4CCCCC4)nc(Nc4ccc(C(F)(F)F)cc4)c3CC2)c(Cl)c1
- IC50 [1]: 462 nM
- solubility thermodynamic [11]: 218 µg/mL (≈ 399 µM)
